Measured values taken from patent US20190105337A1, “METHODS OF TREATING BACTERIAL INFECTIONS” (priority 2015, published 2019).
Like-named read-outs stand apart in the source and are kept apart here.

Assays:
clinical = conditions: human, in vivo
P. aeruginosa strains = type: cell-based, Pseudomonas aeruginosa
Description: The pharmacokinetics simulation was based on data from the clinical study disclosed in Example 2.
(§1) In Vitro PK-PD Model: Six medium sized hollow-fiber cartridges (FiberCell Systems) were used per experiment. Three strains studied in duplicate were used for each experiment. Log-phase cells were inoculated and incubated for 2 hours prior to the start of treatment to achieve about 10^8 CFU/mL. Target PK parameters are listed in Tables E and F. The exposures were based on the published literatures disclosed in Example 2. Samples were collected from the central compartment for the determination of drug concentrations over a 32 hour period and were analyzed using an LC-MS/MS method.

[1] = In vitro hollow fiber model: pharmacokinetic parameters of meropenem and Compound I in the central compartment (Tables E, F)
Description: as §1

[2] = cited from earlier work
[3] = Example 3: adverse events during the multiple dose phase; type: in vivo, human
Description: All infusions were administered over 3 hours. Intensive plasma and urine PK sampling was obtained after dosing and assayed using validated HPLC/MS methods.
Table 7 summarizes the number (%) of subjects with at least one treatment emergent AE and number of adverse events during the multiple dose phase. […] All AEs, except 2 were mild or moderate in severity. […] There is no evidence that the addition of Compound I changed the AE profile of meropenem.

[4] = human, in vivo
Description: Forty one subjects were enrolled in 5 groups based on their degree of renal insufficiency. The five cohorts included: patients with normal renal function (CrCl≥90 ml/min), mild renal impairment (CrCl 60-89 ml/min), moderate renal impairment (CrCl 30-<60 ml/min), severe renal impairment (CrCl<30 ml/min, and patients with end stage renal disease requiring hemodialysis. Patients on renal replacement therapy other than standard hemodialysis (including continuous veno-venous hemofiltration, continuous veno-venous hemodialysis and continuous renal replacement therapy) were not studied.

[5] = Example 1: safety and tolerability of Compound I in healthy adult subjects; type: in vivo, human
Description: 56 healthy subjects were enrolled into one of 7 cohorts of 8 subjects each in the single ascending dose phase (250 mg, 500 mg, 750 mg, 1000 mg, 1250 mg, 1500 mg and 2000 mg). Thirty-two additional subjects were then enrolled into one of 4 cohorts in the multiple-dose phase (250 mg, 1000 mg, 1500 mg, and 2000 mg, given q8 h for 7 days). […] All infusions were administered over 3 hours. Plasma and urine samples were obtained after single or multiple doses and assayed for Compound I content using a validated HPLC/MS method.

[6] = combination Compound I/meropenem (Table F)

## C[C@@H](O)[C@H]1C(=O)N2C(C(=O)O)=C(S[C@@H]3CN[C@H](C(=O)N(C)C)C3)[C@H](C)[C@H]12 [meropenem, Meropenem]
clinical; Meropenem exposure (AUC)
  AUC: 211 µg·h/mL
clinical; weight adjusted clearance (Cl)
  clearance: 2.33 mL/min/kg
P. aeruginosa strains
  efficacy, number of strains: effective against 2 out of 3 strains
P. aeruginosa strains; P. aeruginosa PAM3377, human equivalent 2 g q8h by 3 hour infusion
  Change in Log CFU over 32 hours: 3.7 Log CFU
[1]; [6]
  AUC, Average Meropenem Actual: 131.5 µg·h/mL
  Cmax, Average Meropenem Actual: 33500 ng/mL
  Half-Life, Average Meropenem Actual: 1.4 h
[1]; meropenem alone (Table E)
  AUC, Average Meropenem Actual: 129.0 µg·h/mL
  Cmax, Average Meropenem Actual: 33900 ng/mL
  Half-Life, Average Meropenem Actual: 1.3 h
[2]; 500 mg dose, 1 hour
  mean meropenem ELF concentration: 5.3 µg/mL
[2]; 500 mg dose, 2 hours
  mean meropenem ELF concentration: 2.7 µg/mL
[2]; 500 mg dose, 3 hours
  mean meropenem ELF concentration: 1.9 µg/mL
[2]; 500 mg dose, 5 hours
  mean meropenem ELF concentration: 0.7 µg/mL
[2]; 500 mg dose, 8 hours
  mean meropenem ELF concentration: 0.2 µg/mL
[2]; 500 mg dose
  intrapulmonary penetration based on AUC0-8 of ELF and total plasma: approximately 43%
[2]; 1 gram dose, 1 hour
  mean meropenem ELF concentration: 7.7 µg/mL
[2]; 1 gram dose, 2 hours
  mean meropenem ELF concentration: 4.0 µg/mL
[2]; 1 gram dose, 3 hours
  mean meropenem ELF concentration: 1.7 µg/mL
[2]; 1 gram dose, 5 hours
  mean meropenem ELF concentration: 0.8 µg/mL
[2]; 1 gram dose, 8 hours
  mean meropenem ELF concentration: 0.03 µg/mL
[2]; 1 gram dose
  intrapulmonary penetration based on AUC0-8 of ELF and total plasma: ~28%
[2]; 2 gram dose, 1-hour sampling time
  mean meropenem ELF concentration: 2.9 µg/mL
[2]; 2 gram dose, 3-hour sampling time
  mean meropenem ELF concentration: 2.8 µg/mL
[3]; Pooled 2 g Meropenem
  AEs, Number of Events: [24]
  Moderate or Severe AEs, N subjects: 0
  Subjects with at least one Treatment Emergent AE, %: 80%
[3]; Pooled Meropenem (1 and 2 g)
  AEs, Number of Events: [67]
  Moderate or Severe AEs, % subjects: 24%
  Moderate or Severe AEs, N subjects: 5
  Moderate or Severe AEs, Number of Events: [5]
  Subjects with at least one Treatment Emergent AE, %: 95%
[3]; alone or in combination
  Mild nausea: observed only in the subjects who received meropenem 2 g
[4]
  non-renal clearance: non-renal clearance assumes a greater proportion of total clearance

## O=C(O)C[C@@H]1CC[C@H](NC(=O)Cc2cccs2)B(O)O1 [Compound I]
[5]; 250-2000 mg
  serious adverse events (SAEs): no serious adverse events
  severity of AEs: all AEs were mild or moderate
[5]; all doses tested
  safety and tolerability: safe and well tolerated at all doses tested
[1]; [6]
  AUC, Average Compound I Actual: 105.3 µg·h/mL
  Cmax, Average Compound I Actual: 26400 ng/mL
  Half-Life, Average Compound I Actual: 1.5 h
[4]
  non-renal clearance: no measurable non-renal clearance
